According to BindingDB's records for doi:10.1016/j.bmc.2015.03.045 (Chungnam National University, 2015):

Experiment: Inhibition of mouse IL5-mediated mouse Y16 cell proliferation after 48 hrs by WST1 assay

| Structure (SMILES) | IC50 |
| --- | --- |
| CC(C)C(=O)OCc1c(C2CCCCC2)oc2ccc(NC(=O)c3ccccc3)cc2c1=O | 19 µM |
| CC(C)(C)C(=O)OCc1c(C2CCCCC2)oc2ccc(NC(=O)c3ccccc3)cc2c1=O | > 30 µM |
| CC(=O)OCc1c(C2CCCCC2)oc2ccc(NC(=O)C3CCCCC3)cc2c1=O | 20 µM |
| CC(=O)OCc1c(C2CCCCC2)oc2ccc(NCc3ccccc3)cc2c1=O | 19.2 µM |
| CC(=O)OCc1c(C2CCCCC2)oc2ccc(NC(=O)Nc3ccccc3)cc2c1=O | > 30 µM |
| CC(=O)OCc1c(C2CCCCC2)oc2ccc(NS(=O)(=O)c3ccccc3)cc2c1=O | > 30 µM |
| O=C(Nc1ccc2oc(C3CCCCC3)c(CO)c(=O)c2c1)c1ccccc1 | 10 µM |
| O=C(Nc1ccc2oc(C3CCCCC3)c(CO)c(=O)c2c1)C1CCCCC1 | > 30 µM |
| O=C(Nc1ccc2oc(-c3ccccc3)c(CO)c(=O)c2c1)C1CCCCC1 | > 30 µM |
| O=C(Nc1ccc2oc(-c3ccccc3)c(CO)c(=O)c2c1)c1cnccn1 | > 30 µM |

Other lines, results leading:

| IC50 | Structure (SMILES) |
| --- | --- |
| 6.1 µM | CC(=O)OCc1c(C2CCCCC2)oc2ccc(NC(=O)c3ccccc3)cc2c1=O |
| 16 µM | CC(=O)OCc1c(-c2ccccc2)oc2ccc(NC(=O)c3ccccc3)cc2c1=O |
| > 30 µM | CC(=O)OCc1c(-c2ccc(F)cc2)oc2ccc(NC(=O)c3ccccc3)cc2c1=O |
| 18 µM | CC(=O)OCc1c(-c2ccccc2)oc2ccc(NC(=O)C3CCCCC3)cc2c1=O |
| > 30 µM | CC(=O)OCc1c(-c2ccccc2)oc2ccc(NC(=O)c3cnccn3)cc2c1=O |
| 22 µM | O=C(Nc1ccc2oc(-c3ccccc3)c(CO)c(=O)c2c1)c1ccccc1 |
| > 30 µM | O=C(Nc1ccc2oc(-c3ccc(F)cc3)c(CO)c(=O)c2c1)c1ccccc1 |
